Data on 35 compounds can be found in patent US20250074910A1, “MENIN INHIBITOR AND USE THEREOF” (HITGEN INC., priority 2021, published 2025).

pIC50: −log10 of the molar value.

By pIC50 is commonly meant the negative decadic logarithm of the IC50, by convention in mol/L. As usually defined, the GI50 is the concentration at which growth is held to half of that of the control.

Test [1] deals with Menin/MLL-4-43 peptide interaction (Homo sapiens (Human), UniProt O00255). Put plainly: Menin-MLL interaction inhibitory activity assay (fluorescence polarization competition). The test is classed as binding. The note with it: FITC-MLL4-43-peptide, Menin recombinant protein. The protocol: Test Example 1: Menin-MLL Interaction Inhibitory Activity Assay
The inhibition of Menin/MLL-4-43 peptide interaction by small molecule inhibitors was quantitatively detected by fluorescence polarization competition assay. The experiment was performed in a 384-well plate (Corning, Cat #3575) using a reaction buffer consisting of 50 mM Tris, pH 7.5, 50 mM NaCl, and 1 mM DTT. A 40 μL reaction system included 10 μL of 8 nM Menin recombinant protein and 10 μL of the test compound at different concentrations. The compound was pre-incubated with Menin protein for 15 min, and then 20 μL of 10 nM FITC-MLL4-43-peptide was added. After incubation on a shaker at 25° C. for 60 min, the fluorescence polarization signal (FP 485 520 520) was read using BMG PHERAStar detection. The experimental data was analyzed and processed by GraphPad Prism 6 software to obtain the IC50 value. The control compound 1 was prepared by referring to the method of Example 64 in WO2017214367.
In general terms: Polarisation of emitted light reports the rotation of a fluorescent probe.

Test [2] relates to MV4-11. Put plainly: Cell proliferation inhibition (CellTiter-Glo), MV4-11. It counts as cell-based. The note with it: MV4-11 cells. As to the method:
(§1) Test Example 2: Test of the Inhibitory Ability of Menin-MLL Interaction Inhibitors on Cell Proliferation
(§2) The inhibitory ability of the compounds of the present disclosure on the proliferation of tumor cell lines (including cell lines containing MLL fusion protein such as MV4-11, MOLM-13, THP-1 and NOMO-1, control cell lines without MLL fusion protein such as HL-60, K562 and MOLM-16, and cell lines containing NPM1 mutation such as OCI-AML3) was evaluated by using the cell viability analysis method. The cells were plated in 96-well plates at a certain concentration (e.g., 5,000-20,000 cells/well), and then an equal volume of culture medium containing 2 times the final concentration of the test compound (the final concentration ranging 10 from 1 nM to 10 μM) was added. The plates were placed in an incubator and cultured at 37° C. and 5% CO2 for 72-168 h. Before the test, an equal volume of CellTiter-Glo® Luminescent reagent was added, and the plate was incubated at room temperature for 10 min before detection using an ELISA reader (BMG LABTECH). The data were analyzed using GraphPad Prism software to obtain the IC50 value and compound fitting curve. The control compound 1 was prepared by referring to the method of Example 64 in WO2017214367.

The subject of test [3] is OCI-AML3. Briefly: Cell proliferation inhibition (CellTiter-Glo), OCI-AML3 (NPM1 mutation). The test is classed as cell-based. The note with it: OCI-AML3 cells. The protocol: as §1, §2

Sequence of Menin/MLL-4-43 peptide interaction (O00255 whole entry, species assumed): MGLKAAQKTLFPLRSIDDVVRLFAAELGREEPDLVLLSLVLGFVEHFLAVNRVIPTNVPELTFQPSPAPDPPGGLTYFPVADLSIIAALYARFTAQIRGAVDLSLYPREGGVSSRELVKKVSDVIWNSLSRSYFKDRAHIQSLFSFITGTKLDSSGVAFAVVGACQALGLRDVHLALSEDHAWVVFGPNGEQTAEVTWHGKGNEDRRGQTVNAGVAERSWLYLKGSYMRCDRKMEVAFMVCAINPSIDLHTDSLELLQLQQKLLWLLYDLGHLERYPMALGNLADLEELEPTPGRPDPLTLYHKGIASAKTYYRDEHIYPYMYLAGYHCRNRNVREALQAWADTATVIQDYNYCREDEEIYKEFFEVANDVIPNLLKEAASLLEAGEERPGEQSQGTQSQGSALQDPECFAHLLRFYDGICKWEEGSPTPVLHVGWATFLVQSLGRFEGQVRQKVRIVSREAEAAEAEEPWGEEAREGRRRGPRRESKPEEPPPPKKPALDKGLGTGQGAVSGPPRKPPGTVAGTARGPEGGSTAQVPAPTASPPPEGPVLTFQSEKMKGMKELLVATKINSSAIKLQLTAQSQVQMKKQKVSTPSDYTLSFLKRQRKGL

`CC(C)N(C(=O)c1cc(F)ccc1Oc1cncnc1N1CC2(CCN(CC3CC4CCC3CC43CCC(=O)N3)CC2)C1)C(C)C` (single isomer, unassigned) [Example 13-2b]: the pIC50 in test [1] was 6.85. In test [2] (72 h), the concentration for 50% growth inhibition (GI50) was found to be 153 nM. As to `CC(C)N(C(=O)c1cc(F)ccc1Oc1cncnc1N1CC2(CCN(CC3CC4CCC3CC43COC(=O)N3)CC2)C1)C(C)C` (single isomer, unassigned) [Example 51-2b], the pIC50 in test [1] was 6.85.

With `CCN(C(=O)c1cc(F)ccc1Oc1nncnc1N1CC2(CCN(C[C@H]3CC[C@]4(CC3)CC(C)C(=O)N4)CC2)C1)C(C)C` (single isomer, unassigned) [Example 40-2], in test [1], the pIC50 is 7.46. This compound also showed a concentration for 50% growth inhibition (GI50) in test [2] (72 h) of 82.8 nM.

Take `CC(C)N(C(=O)c1cc(F)ccc1Oc1cncnc1N1CC2(CCN(C[C@H]3CC[C@]4(CC3)CC(C)(C)C(=O)N4)CC2)C1)C(C)C` [Example 22]: the GI50 was 24 nM in test [3] (Homo sapiens, OCI-AML-3, 168 h) and 11.3 nM in test [2] (Homo sapiens, MV4-11, 72 h). For the same compound, the negative logarithm of the IC50 (pIC50) in test [1] is 7.78. As for `CCN(C(=O)c1cc(F)ccc1Oc1cncnc1N1CC2(CCN(CC3CC4CCC3CC43CCC(=O)N3)CC2)C1)C(C)C` (single isomer, unassigned) [Example 3], the negative logarithm of the IC50 (pIC50) in test [1] was 7.62. Moreover, it took 94.7 nM to inhibit growth in test [2] (Homo sapiens, MV4-11, 72 h) by half (GI50). Take `CCN(C(=O)c1cc(F)ccc1Oc1cncnc1N1CC2(CCN(CC3CC4CCC3CC43COC(=O)N3)CC2)C1)C(C)C` (single isomer, unassigned) [Example 50-2]: the pIC50 in test [1] is 7.40. In test [2] (72 h), this compound came in with a GI50 of 69.1 nM.

Regarding `[2H]C([2H])([2H])C1C[C@]2(CC[C@@H](CN3CCC4(CC3)CN(c3ncnnc3Oc3ccc(F)cc3C(=O)N(CC)C(C)C)C4)CC2)NC1=O` (single isomer, unassigned) [Example 42-2], the pIC50 in test [1] was 7.35. Consider `CCN(C(=O)c1cc(F)ccc1Oc1cncnc1N1CC2(CCN(C[C@H]3CC[C@]4(CC3)C[C@@H](COC)C(=O)N4)CC2)C1)C(C)C` [Example 35], for which, in test [1], the pIC50 was 8.44. Moreover, in test [2] (Homo sapiens, MV4-11, 72 h), the concentration for 50% growth inhibition (GI50) was 11.7 nM. In the same order, the values of `[2H]C([2H])([2H])C1(C([2H])([2H])[2H])C[C@]2(CC[C@@H](CN3CCC4(CC3)CN(c3ncnnc3Oc3ccc(F)cc3C(=O)N(CC)C(C)C)C4)CC2)NC1=O` [Example 33] are 8.08 and 20.5 nM.

In the case of `CC(C)N(C(=O)c1cc(F)ccc1Oc1cncnc1N1CC2(CCN(CC3CC4CCC3CC43COC(=O)N3)CC2)C1)C(C)C` (single isomer, unassigned) [Example 51-2a], the concentration for 50% growth inhibition (GI50) was found to be 31.5 nM in test [3] (168 h) and 11.7 nM in test [2] (72 h). Besides, in test [1], the pIC50 is 7.15. As to `CC(C)N(C(=O)c1cc(F)ccc1Oc1nncnc1N1CC2(CCN(CC3CC4CCC3CC43COC(=O)N3)CC2)C1)C(C)C` (single isomer, unassigned) [Example 52-2a], the GI50 was 47.9 nM in test [3] (168 h) and 43.6 nM in test [2] (72 h). In addition, in test [1], the pIC50 is 7.09. Regarding `CC(C)N(C(=O)c1cc(F)ccc1Oc1cncnc1N1CC2(CCN(CC3CC4CCC3CC43CCC(=O)N3)CC2)C1)C(C)C` (single isomer, unassigned) [Example 13-2], in test [1], the pIC50 was 7.60. For the same compound, the GI50 in test [2] (72 h) is 49.7 nM.

As to `CC(C)N(C(=O)c1cc(F)ccc1Oc1nncnc1N1CC2(CCN(CC3CC4CCC3CC43CCC(=O)N3)CC2)C1)C(C)C` (single isomer, unassigned) [Example 15-1b], the pIC50 in test [1] is 6.85.

Turning to `CC(C)N(C(=O)c1cc(F)ccc1Oc1nncnc1N1CC2(CCN(CC3CC4CCC3CC43COC(=O)N3)CC2)C1)C(C)C` (single isomer, unassigned) [Example 52-1], in test [1], the pIC50 is 6.87.

Consider `CC(C)N(C(=O)c1cc(F)ccc1Oc1nncnc1N1CC2(CCN(C[C@H]3CC[C@@]4(CCC(=O)N4)CC3)CC2)C1)C1CC1` [Example 11], for which the pIC50 in test [1] is 6.78. With `CC(C)N(C(=O)c1cc(F)ccc1Oc1nncnc1N1CC2(CCN(CC3CC4CCC3CC43CCC(=O)N3)CC2)C1)C(C)C` (centres unmarked) [Example 15-1], the pIC50 in test [1] was 7.04. In test [2] (Homo sapiens, MV4-11, 72 h), `CC(C)N(C(=O)c1cc(F)ccc1Oc1nncnc1N1CC2(CCN(CC3CC4CCC3CC43CCC(=O)N3)CC2)C1)C1CC1` (centres unmarked) [Example 16-1] gave a GI50 of 130 nM.

`CC(C)N(C(=O)c1cc(F)ccc1Oc1nncnc1N1CC2(CCN(CC3CC4CCC3CC43COC(=O)N3)CC2)C1)C(C)C` (single isomer, unassigned) [Example 52-2b] came in with a GI50 in test [3] (168 h) of 50.6 nM. Also, the pIC50 in test [1] is 6.70. Regarding `CC(C)N(C(=O)c1cc(F)ccc1Oc1cncnc1N1CC2(CCN(CC3CC4CCC3CC43CCC(=O)N3)CC2)C1)C(C)C` (single isomer, unassigned) [Example 13-1a], the pIC50 in test [1] was 6.75. For `COC[C@@H]1C[C@]2(CC[C@@H](CN3CCC4(CC3)CN(c3ncncc3Oc3ccc(F)cc3C(=O)N(C(C)C)C(C)C)C4)CC2)NC1=O` [Example 36], the negative logarithm of the IC50 (pIC50) in test [1] was 8.36. In addition, in test [2] (Homo sapiens, MV4-11, 72 h), the GI50 was determined as 13.1 nM. For `CC(C)N(C(=O)c1cc(F)ccc1Oc1nncnc1N1CC2(CCN(CC3CC4CCC3CC43COC(=O)N3)CC2)C1)C(C)C` (single isomer, unassigned) [Example 52-2], in test [1], the pIC50 is 7.03. With `CC1C[C@]2(CC[C@@H](CN3CCC4(CC3)CN(c3ncncc3Oc3ccc(F)cc3C(=O)N(C(C)C)C(C)C)C4)CC2)NC1=O` (some centres unmarked) [Example 39], the pIC50 in test [1] was 7.62. Also, the GI50 in test [2] (Homo sapiens, MV4-11, 72 h) was determined as 20 nM. For `CCN(C(=O)c1cc(F)ccc1Oc1cncnc1N1CC2(CCN(CC3CC4CCC3CC43CCC(=O)N3)CC2)C1)C(C)C` (single isomer, unassigned) [Example 4-2], the pIC50 in test [1] was 7.22. Turning to `C=C1C[C@]2(CC[C@@H](CN3CCC4(CC3)CN(c3ncncc3Oc3ccc(F)cc3C(=O)N(C(C)C)C(C)C)C4)CC2)NC1=O` [Example 62], the negative logarithm of the IC50 (pIC50) in test [1] is 7.70. Further, the GI50 in test [2] (Homo sapiens, MV4-11, 72 h) was found to be 34.8 nM.

As to `CC(C)N(C)C(=O)c1cc(F)ccc1Oc1nncnc1N1CC2(CCN(C[C@H]3CC[C@]4(CC3)CC(C)(C)C(=O)N4)CC2)C1` [Example 28], in test [1], the pIC50 was 6.87. `CC(C)N(C(=O)c1cc(F)ccc1Oc1cncnc1N1CC2(CCN(CC3CC4CCC3CC43CCC(=O)N3)CC2)C1)C(C)C` (single isomer, unassigned) [Example 13-2a]: the pIC50 in test [1] was 7.78. In test [2] (72 h), this compound gave a GI50 of 25.2 nM. As for `CCN(C(=O)c1cc(F)ccc1Oc1cncnc1N1CC2(CCN(CC3CC4CCC3CC43CCC(=O)N3)CC2)C1)C(C)C` (single isomer, unassigned) [Example 3-2], the pIC50 in test [1] is 6.95. The GI50 in test [2] (72 h) was found to be 86.1 nM. `CCN(C(=O)c1cc(F)ccc1Oc1cncnc1N1CC2(CCN(CC3CC4CCC3CC43CCC(=O)N3)CC2)C1)C(C)C` (single isomer, unassigned) [Example 4-1]: the pIC50 in test [1] is 7.92. In test [2] (72 h), this compound yielded a GI50 of 55 nM. Take `[2H]C([2H])([2H])C1(C([2H])([2H])[2H])C[C@]2(CC[C@@H](CN3CCC4(CC3)CN(c3ncnnc3Oc3ccc(F)cc3C(=O)N(C(C)C)C(C)C)C4)CC2)NC1=O` [Example 34]: the pIC50 in test [1] is 8.19. Further, the GI50 in test [2] (Homo sapiens, MV4-11, 72 h) was determined as 12.6 nM. On the same counts, the results for `CCN(C(=O)c1cc(F)ccc1Oc1cncnc1N1CC2(CCN(CC3CC4CCC3CC43COC(=O)N3)CC2)C1)C(C)C` (single isomer, unassigned) [Example 50-1] are 7.44 and 74.4 nM. On to `CC(C)N(C(=O)c1cc(F)ccc1Oc1cncnc1N1CC2(CCN(CC3CC4CCC3CC43CCC(=O)N3)CC2)C1)C(C)C` (single isomer, unassigned) [Example 13-1], for which, in test [1], the pIC50 was 7.67. In test [2] (Homo sapiens, MV4-11, 72 h), this compound showed a GI50 of 82.6 nM. Turning to `CC1C[C@]2(CC[C@@H](CN3CCC4(CC3)CN(c3ncnnc3Oc3ccc(F)cc3C(=O)N(C(C)C)C(C)C)C4)CC2)NC1=O` (some centres unmarked) [Example 41-2], in test [1], the pIC50 was 7.65. Still for that read-out and setting: with `CCN(C(=O)c1cc(F)ccc1Oc1nncnc1N1CC2(CCN(CC3CC4CCC3CC43CCC(=O)N3)CC2)C1)C(C)C` (centres unmarked) [Example 14-1] the figure was 6.99. Regarding `CCN(C(=O)c1cc(F)ccc1Oc1cncnc1N1CC2(CCN(CC3CC4CCC3CC43CCC(=O)N3)CC2)C1)C(C)C` (single isomer, unassigned) [Example 4], the pIC50 in test [1] was 7.54. In test [2] (72 h), this compound registered a GI50 of 61 nM. As for `CC(C)N(C(=O)c1cc(F)ccc1Oc1nncnc1N1CC2(CCN(CC3CC4CCC3CC43CCC(=O)N3)CC2)C1)C1CC1` (centres unmarked) [Example 16-2], the pIC50 in test [1] is 6.79.
